Assay results from US20060148858A1, “1, 2-Azole derivatives with hypoglycemic and hypolipidemic activity” (priority 2002, published 2006).

Tests used:
PPARδ-RXRα heterodimer = molecular target: T1, PPARδ-RXRα heterodimer (Homo sapiens, UniProt Q03181); assay: PPARδ-RXRα heterodimer ligand activity, luciferase reporter in COS-1 transformant (Test Example 4); format: cell-based; conditions: COS-1 transformant (hPPARδ, hRXRα, reporter), 36-48 hours, concentration for 50% of the maximum fold induction
T1 construct: expressed in transfected cells; host or cells: COS-1
T1 sequence (Q03181 1-441): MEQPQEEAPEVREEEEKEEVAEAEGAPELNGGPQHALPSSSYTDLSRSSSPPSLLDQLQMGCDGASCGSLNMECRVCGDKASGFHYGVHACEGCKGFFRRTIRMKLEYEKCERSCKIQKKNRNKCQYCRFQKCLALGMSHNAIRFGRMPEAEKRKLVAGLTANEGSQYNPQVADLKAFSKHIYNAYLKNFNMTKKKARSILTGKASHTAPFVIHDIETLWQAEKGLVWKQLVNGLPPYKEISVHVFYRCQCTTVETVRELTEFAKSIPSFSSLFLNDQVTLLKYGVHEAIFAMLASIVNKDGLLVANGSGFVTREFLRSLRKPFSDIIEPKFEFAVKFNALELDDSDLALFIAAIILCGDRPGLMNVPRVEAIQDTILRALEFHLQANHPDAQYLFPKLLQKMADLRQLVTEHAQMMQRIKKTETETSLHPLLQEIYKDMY
T1 sequence (P19793 1-462 partner): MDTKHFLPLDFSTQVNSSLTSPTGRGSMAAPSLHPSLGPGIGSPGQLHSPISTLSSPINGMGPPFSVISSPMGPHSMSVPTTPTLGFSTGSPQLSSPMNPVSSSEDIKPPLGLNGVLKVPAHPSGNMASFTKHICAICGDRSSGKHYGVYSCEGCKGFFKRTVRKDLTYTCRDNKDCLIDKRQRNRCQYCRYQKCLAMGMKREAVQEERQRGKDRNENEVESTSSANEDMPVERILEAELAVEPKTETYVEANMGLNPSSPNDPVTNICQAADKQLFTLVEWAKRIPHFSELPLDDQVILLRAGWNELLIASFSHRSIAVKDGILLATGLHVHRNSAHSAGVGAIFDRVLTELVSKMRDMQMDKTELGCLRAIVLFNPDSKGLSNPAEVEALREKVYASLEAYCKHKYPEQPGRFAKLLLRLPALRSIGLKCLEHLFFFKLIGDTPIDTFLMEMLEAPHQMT
Experimental: The transformant obtained in Reference Example 9a was suspended in DMEM medium (produced by Life Technologies, Inc., USA) containing 0.1% fatty acid-free bovine serum albumin (BSA) (produced by Wako Pure Chemical Industries, Ltd.), and inoculate to each well of a 96-well white plate (produced by Corning Costar Corporation, USA) by 80 μl at 1×10^4 cells/well. Then the test compound (20 μl) was added and cultured at 37° C. under 5% CO2 for 36-48 hours. After removing the medium from the 96-well white plate, 40 μl of PIKKAGENE LT 7.5 (produced by Wako Pure Chemical Industries, Ltd.) diluted twice with HBSS (HANKS' BALANCED SALT SOLUTION)(produced by BIO WHITTAKER Inc., USA), was added. After stirring, the luciferase activity was determined using 1420 ARVO Multilabel Counter (produced by PerkinElmer Inc., USA).
A fold induction was calculated based on the luciferase activity of each test compound by taking the luciferase activity in the non-treatment group as 1. The values of the test compound concentration and the fold induction were analyzed using PRISM (produced by GraphPad Software Inc. USA) to calculate the EC50 values, the effective concentration of a test compound for 50% of the maximum fold induction.
COS-1 cells were inoculated to a 150 cm^2 cell culture flask (produced by Corning Costar Corporation, USA) at the density of 5×10^6 cells/50 ml, and cultured at 37° C. under 5% CO2 conditions for 24 hours. Subsequently, a DNA was introduced into the cell under the condition shown below using Lipofectamine (produced by Invitrogen, USA).
First, Lipofectamine (125 μl), PLUS Reagent (100 μl, produced by Invitrogen, USA), plasmid pMCMVneo-hPPARδ (2.5 μg) obtained in Reference Example 3a, plasmid pMCMVneo-hRXRα (2.5 μg) obtained in Reference Example 4a and reporter plasmid pGL3-4ERPP-TK neo (5 μg) obtained in Reference Example 5a, and pRL-tk (5 μg, produced by Promega, USA) were mixed with opti-MEM (5 ml, produced by Invitrogen, USA) to give a transfection mixture.
Then, the above-mentioned transfection mixture and opti-MEM (20 ml) were added to COS-1 cells washed with opti-MEM, and the cells were cultured at 37° C. under 5% CO2 conditions for 3 hours. DMEM medium (25 ml, produced by Life Technologies, Inc., USA) containing 0.1% fatty acid-free bovine serum albumin (BSA) (produced by Wako Pure Chemical Industries, Ltd.) was added to the obtained COS-1 cells, and the cells were cultured at 37° C. under 5% CO2 conditions for 18-24 hours to give a transformant.

Row | Structure (SMILES) | EC50 (PPARδ-RXRα heterodimer) [nM] | melting point [°C]
1 | COc1cc(CCC(=O)O)ccc1OCCCc1cn(-c2ccc(C(F)(F)F)cn2)nc1C [Example 129, 3-[3-methoxy-4-(3-{3-methyl-1-[5-(trifluoromethyl)-2-pyridyl]-1H-pyrazol-4-yl}propoxy)phenyl]propionic acid] | 4.9 | 136 to 137
2 | CCOc1nn(-c2ccc(C(F)(F)F)cn2)cc1CCCOc1c(CC(=O)O)cccc1OC [Example 146, [2-(3-{3-ethoxy-1-[5-(trifluoromethyl)-2-pyridyl]-1H-pyrazol-4-yl}propoxy)-3-methoxyphenyl]acetic acid] | 5.8 | 122 to 123
3 | CCOc1cc(OCCCc2cn(-c3ccc(C(F)(F)F)cn3)nc2OC)ccc1CCC(=O)O [Example 152, 3-[2-ethoxy-4-(3-{3-methoxy-1-[5-(trifluoromethyl)-2-pyridyl]-1H-pyrazol-4-yl}propoxy)phenyl]propanoic acid] | 9.9 | 145 to 146
4 | CCCCOc1nn(-c2ccc(C(F)(F)F)cn2)cc1CCCOc1ccc(CCC(=O)O)c(OCC)c1 [Example 155, 3-[4-(3-{3-butoxy-1-[5-(trifluoromethyl)-2-pyridyl]-1H-pyrazol-4-yl}propoxy)-2-ethoxyphenyl]propanoic acid] | 3.8 | 102 to 103
5 | CCCc1nn(-c2ccc(C(F)(F)F)cn2)cc1CCCOc1ccc(C(C)(C)C(=O)O)cc1 [Example 157, 2-methyl-2-[4-(3-{3-propyl-1-[5-(trifluoromethyl)-2-pyridyl]-1H-pyrazol-4-yl}propoxy)phenyl]propanoic acid] | 4.7 | 84 to 85
6 | CCCc1nn(-c2ccc(C(F)(F)F)cn2)cc1CCCOc1cc(CC(=O)O)cc(OC)c1 [Example 169, [3-methoxy-5-(3-{3-propyl-1-[5-(trifluoromethyl)-2-pyridyl]-1H-pyrazol-4-yl}propoxy)phenyl]acetic acid] | 5.7 | 139 to 140
7 | CCOc1nn(-c2ccc(C(F)(F)F)cc2)cc1CCCOc1ccccc1CC(=O)O [Example 182, [2-(3-{3-ethoxy-1-[4-(trifluoromethyl)phenyl]-1H-pyrazol-4-yl}propoxy)phenyl]acetic acid] | 5.6 | 114 to 115
8 | CCOc1ccc(CC(=O)O)cc1OCCCc1cn(-c2ccc(C(F)(F)F)cn2)nc1C(C)C [Example 200, [4-ethoxy-3-(3-{3-isopropyl-1-[5-(trifluoromethyl)-2-pyridyl]-1H-pyrazol-4-yl}propoxy)phenyl]acetic acid] | 5.9 | 116 to 117
9 | CCCc1nn(-c2ccc(C(F)(F)F)cn2)cc1CCCOc1cc(CC(=O)O)ccc1OCC [Example 204, [4-ethoxy-3-(3-{3-propyl-1-[5-(trifluoromethyl)-2-pyridyl]-1H-pyrazol-4-yl}propoxy)phenyl]acetic acid] | 4.6 | 124 to 125
10 | CCCc1cn(CC(=O)O)nc1OCCCc1cn(-c2ccc(C(F)(F)F)cn2)nc1OCC [Example 255, [3-(3-{3-ethoxy-1-[5-(trifluoromethyl)-2-pyridyl]-1H-pyrazol-4-yl}propoxy)-4-propyl-1H-pyrazol-1-yl]acetic acid] | 9.5 | 134 to 135
11 | CCCc1nn(-c2ccc(C(F)(F)F)cn2)cc1CCCOc1cccc(CC(=O)O)c1F [Example 258, [2-fluoro-3-(3-{3-propyl-1-[5-(trifluoromethyl)-2-pyridyl]-1H-pyrazol-4-yl}propoxy)phenyl]acetic acid] | 5.5 | 109 to 110

Second part, the molecule after the results:

Row | EC50 (PPARδ-RXRα heterodimer) [nM] | melting point [°C] | Structure (SMILES)
12 | 2.9 | 144 to 145 | Cc1cc(OCc2cn(-c3ccc(C(F)(F)F)cn3)nc2C)ccc1CCC(=O)O [Example 123, 3-[2-methyl-4-({3-methyl-1-[5-(trifluoromethyl)-2-pyridyl]-1H-pyrazol-4-yl}methoxy)phenyl]propionic acid]
13 | 2.4 | 132 to 133 | O=C(O)Cc1cccc(OCCCc2cn(-c3ccc(C(F)(F)F)cn3)nc2-c2ccccc2)c1 [Example 124, [3-(3-{3-phenyl-1-[5-(trifluoromethyl)-2-pyridyl]-1H-pyrazol-4-yl}propoxy)phenyl]acetic acid]
14 | 2.2 | 129 to 130 | CCOc1cc(OCCCc2cn(-c3ccc(C(F)(F)F)cn3)nc2C)ccc1CCC(=O)O [Example 126, 3-[2-ethoxy-4-(3-{3-methyl-1-[5-(trifluoromethyl)-2-pyridyl]-1H-pyrazol-4-yl}propoxy)phenyl]propionic acid]
15 | 3.9 | 96 to 97 | Cc1nn(-c2ccc(C(F)(F)F)cn2)cc1CCCOc1cccc(CC(=O)O)c1 [Example 127, [3-(3-{3-methyl-1-[5-(trifluoromethyl)-2-pyridyl]-1H-pyrazol-4-yl}propoxy)phenyl]acetic acid]
16 | 2.7 | 142 to 143 | CCOc1nn(-c2ccc(C(F)(F)F)cn2)cc1CCCOc1cc(CC(=O)O)ccc1OC [Example 131, [3-(3-{3-ethoxy-1-[5-(trifluoromethyl)-2-pyridyl]-1H-pyrazol-4-yl}propoxy)-4-methoxyphenyl]acetic acid]
17 | 2.7 | 131 to 132 | CCOc1nn(-c2ccc(C(F)(F)F)cn2)cc1CCCOc1ccc(CCC(=O)O)cc1OC [Example 150, 3-[4-(3-{3-ethoxy-1-[5-(trifluoromethyl)-2-pyridyl]-1H-pyrazol-4-yl}propoxy)-3-methoxyphenyl]propanoic acid]
18 | 1.9 | 112 to 113 | CCCOc1nn(-c2ccc(C(F)(F)F)cn2)cc1CCCOc1ccc(CCC(=O)O)c(OCC)c1 [Example 153, 3-[2-ethoxy-4-(3-{3-propoxy-1-[5-(trifluoromethyl)-2-pyridyl]-1H-pyrazol-4-yl}propoxy)phenyl]propanoic acid]
19 | 1.5 | 128 to 129 | CCOc1cc(OCCCc2cn(-c3ccc(C(F)(F)F)cn3)nc2OC(C)C)ccc1CCC(=O)O [Example 154, 3-[2-ethoxy-4-(3-{3-isopropoxy-1-[5-(trifluoromethyl)-2-pyridyl]-1H-pyrazol-4-yl}propoxy)phenyl]propanoic acid]
20 | 1.6 | 125 to 126 | CCOc1nn(-c2ccc(C(F)(F)F)cn2)cc1CCCOc1cc(CC(=O)O)cc(OC)c1 [Example 168, [5-(3-{3-ethoxy-1-[5-(trifluoromethyl)-2-pyridyl]-1H-pyrazol-4-yl}propoxy)-3-methoxyphenyl]acetic acid]
21 | 1.9 | 120 to 121 | CCOc1nn(-c2ccc(C(F)(F)F)cn2)cc1CCCOc1cccc(CC(=O)O)c1F [Example 186, [3-(3-{3-ethoxy-1-[5-(trifluoromethyl)-2-pyridyl]-1H-pyrazol-4-yl}propoxy)-2-fluorophenyl]acetic acid]
